Data: ChEMBL document CHEMBL1141570, “Glycosidase profiling with immobilised glycosidase-inhibiting iminoalditols--a proof-of-concept study” (Bioorg Med Chem Lett, 2008)

target: T1, Beta-glucosidase (Agrobacterium sp. ATCC 21400, UniProt P12614); assay: Inhibition of Agrobacterium sp. beta-glucosidase
T1 sequence (P12614 whole entry): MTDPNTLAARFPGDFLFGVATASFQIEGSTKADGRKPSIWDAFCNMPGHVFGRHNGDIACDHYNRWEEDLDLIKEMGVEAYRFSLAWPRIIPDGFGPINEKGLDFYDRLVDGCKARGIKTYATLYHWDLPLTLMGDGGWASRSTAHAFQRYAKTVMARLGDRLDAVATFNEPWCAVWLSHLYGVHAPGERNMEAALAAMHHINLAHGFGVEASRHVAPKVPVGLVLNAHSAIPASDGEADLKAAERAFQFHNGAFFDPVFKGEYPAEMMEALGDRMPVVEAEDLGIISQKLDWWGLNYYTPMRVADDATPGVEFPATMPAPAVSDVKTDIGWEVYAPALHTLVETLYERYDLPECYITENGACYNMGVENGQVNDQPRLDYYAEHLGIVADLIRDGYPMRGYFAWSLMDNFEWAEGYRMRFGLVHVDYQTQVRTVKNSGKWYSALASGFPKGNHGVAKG

For `COC(=O)CCCCCNC(=O)[C@H](CCCCN1C[C@H](O)[C@@H](O)[C@H](O)[C@H]1CO)NS(=O)(=O)c1cccc2c(N(C)C)cccc12`, which Ki is on record?
The Ki was 6.2 µM.

For `COC(=O)CCCCCNC(=O)CCCCCN1[C@H](CO)[C@@H](O)[C@H](O)[C@H]1CNS(=O)(=O)c1cccc2c(N(C)C)cccc12`, which Ki is on record?
Its Ki is 0.9 µM.

For `COC(=O)CCCCCNC(=O)[C@H](CCCCN1C[C@@H](O)[C@@H](O)[C@H](O)[C@H]1CO)NS(=O)(=O)c1cccc2c(N(C)C)cccc12`, which Ki is on record?
The Ki was 1000 µM.
